# Measured values reported in article PMC3515705 (Nature structural & molecular biology, 2012).
# Target: scRio2 (Saccharomyces cerevisiae, UniProt P40160)
# Sequence (P40160 whole entry): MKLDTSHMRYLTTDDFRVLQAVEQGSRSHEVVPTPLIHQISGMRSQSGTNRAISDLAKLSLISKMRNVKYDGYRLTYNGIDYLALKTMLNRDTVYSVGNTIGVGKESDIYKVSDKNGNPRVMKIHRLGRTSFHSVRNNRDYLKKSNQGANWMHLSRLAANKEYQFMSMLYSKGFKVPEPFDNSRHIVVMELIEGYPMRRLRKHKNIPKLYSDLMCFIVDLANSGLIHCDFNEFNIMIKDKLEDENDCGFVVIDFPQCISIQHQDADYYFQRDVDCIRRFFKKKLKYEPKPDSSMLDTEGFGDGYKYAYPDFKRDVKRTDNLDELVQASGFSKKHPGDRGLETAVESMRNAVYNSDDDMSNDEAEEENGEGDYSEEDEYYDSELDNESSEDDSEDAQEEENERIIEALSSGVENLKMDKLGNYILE
smiles,measurement,value
Nc1ncnc2c1ncn2[C@@H]1O[C@H](COP(=O)(O)OP(=O)(O)OP(=O)(O)O)[C@@H](O)[C@H]1O [ATP],autophosphorylation detected by mass spectrometry,phospho-serine residues after incubation of purified recombinant scRio2 with ATP
